Results: patent US20190038632A1 (BAYER PHARMA AKTIENGESELLSCHAFT, priority 2016, published 2019)
Values joined by “and” are separate entries in the source; they are usually repeats but may differ in a detail not shown here. Equal values may be shown once.

System: NHL patients
Experiment: clinical study A: copanlisib therapy in NHL patients, best response and PFS, also by baseline tumor gene expression
Format: in vivo, human
Details: for PFS (Independent*) Days / Best Response (Independent*): one line per subject; for PFS (Independent*) Days: censor status in column beside
[1] = mantle cell lymphoma patients (N = 2)

In the case of COc1c(OCCCN2CCOCC2)ccc2c1N=C(NC(=O)c1cnc(N)nc1)N1CCN=C21 [copanlisib], the “HR for PFS” value (CSTB, median gene expression level as cutoff, p=0.07) is reported as 3.3 (0.9-12), the “median PFS days” value (CSTB, median gene expression level as cutoff, shorter-PFS group (high expression per text)) is reported as 74 days and the “HR for PFS” value (MT2A, median gene expression level as cutoff, p=0.30) is reported as 1.3 (0.8-2.2). The PFS (NHL patients with low BCR WGS (median cut-off 41.7)) was 62 days, the “HR for PFS” value (NOP10, median gene expression level as cutoff, p=0.23) was 1.9 (0.7-5.4) and the “PFS (Independent*) Days” value (diffuse large B-cell lymphoma patients (N = 5)) was 56 days and 13 days and 49 days. The “PFS (Independent*) Days” value (follicular lymphoma patients (N = 10)) was 53 days and 74 days and 28 days, the “Best Response (Independent*)” value (follicular lymphoma patients (N = 10), data cutoff February 2015) was “CRu” and the “HR for PFS” value (high vs low BCR WGS, nominal Cox model p<0.0001) was 0.035. For the same compound, the “HR for PFS” value (high vs low GPR18 expression, nominal Cox model p<0.01) was 0.17, the “Best Response (Independent*)” value [1] was “CRu” and the “PFS (Independent*) Days” value [1] was 7 days. For the same compound, the “PFS (Independent*) Days” value (trans. indolent lymphoma patients (N = 2)) was 16 days and 42 days.
